Assay results published in ChEMBL document CHEMBL3751686, “Novel benzoxepine-1,2,3-triazole hybrids: synthesis and pharmacological evaluation as potential antibacterial and anticancer agents” (Medchemcomm, 2015).
≈ marks a conversion by molar mass, not a printed value. Calls of active or inactive are those of the source. The calls are words filed in the database; no cut-off is given here.

Tests used:
Staphylococcus aureus [1] = test: Antibacterial activity against Staphylococcus aureus at 0.4 mg/50 uL incubated overnight by agar-well diffusion analysis; format: functional
Pseudomonas aeruginosa [2] = test: Antibacterial activity against Pseudomonas aeruginosa MTCC 6642 at 0.4 mg/50 uL incubated overnight by agar-well diffusion analysis; format: functional
Escherichia coli [3] = test: Antibacterial activity against Escherichia coli MTCC 1563 at 0.4 mg/50 uL incubated overnight by agar-well diffusion analysis; format: functional
Klebsiella pneumoniae [4] = test: Antibacterial activity against Klebsiella pneumoniae at 0.4 mg/50 uL incubated overnight by agar-well diffusion analysis; format: functional
NCI-H226 [5] = test: Cytotoxicity against human NCI-H226 cells after 48 hrs by SRB assay; format: functional; conditions: NCI-H226, 48 h
[6] = Cytotoxicity against human HCT15 cells after 48 hrs by SRB assay; format: functional; conditions: HCT-15, 48 h; for CC50: read-out: LC50 (the source's name)
NCI-H226 [7] = test: Cytotoxicity against human NCI-H226 cells assessed as cell growth at 80 ug/ml after 48 hrs by SRB assay; format: functional; conditions: NCI-H226, 48 h, read-out: Activity
[8] = Cytotoxicity against human HCT15 cells assessed as cell growth at 80 ug/ml after 48 hrs by SRB assay; format: functional; conditions: HCT-15, 48 h, read-out: Activity
HEK293 = test: Cytotoxicity against HEK293 cells after 48 hrs by SRB assay; format: cell-based; conditions: human, hek293, 48 h
Pseudomonas aeruginosa [9] = test: Antibacterial activity against Pseudomonas aeruginosa MTCC 6642 at 0.04 mg/50 uL incubated overnight by agar-well diffusion analysis; format: functional
Staphylococcus aureus [10] = test: Antibacterial activity against Staphylococcus aureus at 0.04 mg/50 uL incubated overnight by agar-well diffusion analysis; format: functional
Klebsiella pneumoniae [11] = test: Antibacterial activity against Klebsiella pneumoniae at 0.04 mg/50 uL incubated overnight by agar-well diffusion analysis; format: functional
Escherichia coli [12] = test: Antibacterial activity against Escherichia coli MTCC 1563 at 0.04 mg/50 uL incubated overnight by agar-well diffusion analysis; format: functional

SMILES | diameter of the inhibition zone (DIZ) (Staphylococcus aureus [1]) [mm] | diameter of the inhibition zone (DIZ) (Pseudomonas aeruginosa [2]) [mm] | diameter of the inhibition zone (DIZ) (Escherichia coli [3]) | diameter of the inhibition zone (DIZ) (Klebsiella pneumoniae [4]) | further results
Cc1ccc(-c2cn(CC3=C(Cl)c4cc(C)ccc4OCC3)nn2)cc1 | 8 | 10 | 10 mm | – | –
Cc1cccc2c1OCCC(Cn1cc(COc3cccc4cccnc34)nn1)=C2Cl | 10 | 18 | – | – | –
Cc1cccc2c1OCCC(Cn1cc(-c3ccccc3)nn1)=C2Cl | – | 11 | 25 mm | 9 mm | –
COc1cccc2c1C(=O)c1c(O)c3c(c(O)c1C2=O)C[C@@](O)(C(=O)CO)C[C@@H]3O[C@H]1C[C@H](N)[C@H](O)[C@H](C)O1 [DOXORUBICIN] | – | – | – | – | GI50 (NCI-H226 [5]): < 10 µg/mL; TGI (NCI-H226 [5]): < 10 µg/mL; GI50 [6]: < 10 µg/mL; TGI [6]: 36.1 µg/mL (≈ 66.4 µM); CC50 [6]: > 80 µg/mL
O=c1ccc2ccc(OCc3cn(CC4=C(Cl)c5ccccc5OCC4)nn3)cc2o1 | 10 | 12 | inactive | 11 mm | –
Cc1ccc(-c2cn(CC3=C(Cl)c4cc(Cl)ccc4OCC3)nn2)cc1 | – | 12 | 13 mm | 10 mm | –
Cc1ccc2c(c1)C(Cl)=C(Cn1cc(COc3ccc4ccc(=O)oc4c3)nn1)CCO2 | 10 | 18 | 16 mm | – | GI50 (NCI-H226 [5]): 41.3 µg/mL (≈ 91.8 µM); LC50 (NCI-H226 [5]): > 80 µg/mL; TGI (NCI-H226 [5]): > 80 µg/mL; GI50 [6]: 52.5 µg/mL (≈ 117 µM); TGI [6]: > 80 µg/mL; CC50 [6]: > 80 µg/mL; growth at 80 µg/mL (NCI-H226 [7]): 8%; growth at 80 µg/mL [8]: 33%; Activity (HEK293): Non-toxic
ClC1=C(Cn2cc(COc3cccc4cccnc34)nn2)CCOc2ccccc21 | 8 | – | 11 mm | inactive | –
Cc1cc(=O)oc2cc(OCc3cn(CC4=C(Cl)c5cc(Cl)ccc5OCC4)nn3)ccc12 | 12 | 18 | 14 mm | – | –
Cc1ccc2c(c1)C(Cl)=C(Cn1cc(COc3ccc4c(C)cc(=O)oc4c3)nn1)CCO2 | – | 16 | inactive | 12 mm | –
ClC1=C(Cn2cc(COc3cccc4cccnc34)nn2)CCOc2ccc(Cl)cc21 | 12 | 10 | 10 mm | 12 mm | –
Cc1ccc(-c2cn(CC3=C(Cl)c4ccccc4OCC3)nn2)cc1 | 10 | 12 | 9 mm | – | growth at 80 µg/mL [8]: 55%; Activity (HEK293): Non-toxic
O=c1ccc2ccc(OCc3cn(CC4=C(Cl)c5cc(Cl)ccc5OCC4)nn3)cc2o1 | 10 | 11 | inactive | 12 mm | –
ClC1=C(Cn2cc(-c3ccccc3)nn2)CCOc2ccccc21 | 7 | 13 | inactive | 18 mm | growth at 80 µg/mL (NCI-H226 [7]): 73%; growth at 80 µg/mL [8]: 61%; Activity (HEK293): Non-toxic
Cc1cc(=O)oc2cc(OCc3cn(CC4=C(Cl)c5ccccc5OCC4)nn3)ccc12 | 11 | 12 | 11 mm | 7 mm | –
Cc1ccc(-c2cn(CC3=C(Cl)c4cccc(C)c4OCC3)nn2)cc1 | 7 | 15 | 20 mm | 17 mm | growth at 80 µg/mL [8]: 58%; Activity (HEK293): Non-toxic
Cc1ccc2c(c1)C(Cl)=C(Cn1cc(-c3ccccc3)nn1)CCO2 | – | 16 | – | 9 mm | –
Cc1cccc2c1OCCC(Cn1cc(COc3ccc4ccc(=O)oc4c3)nn1)=C2Cl | 12 | 14 | – | inactive | growth at 80 µg/mL [8]: 86%; Activity (HEK293): Non-toxic
Cc1cccc2c1OCCC(Cn1cc(COc3ccc4c(C)cc(=O)oc4c3)nn1)=C2Cl | 11 | 11 | – | – | –
CCn1cc(C(=O)O)c(=O)c2cc(F)c(N3CCN(C)CC3)cc21 [PEFLOXACIN] | – | – | – | – | diameter of the inhibition zone (DIZ) (Pseudomonas aeruginosa [9]): 28 mm; diameter of the inhibition zone (DIZ) (Staphylococcus aureus [10]): 36 mm; diameter of the inhibition zone (DIZ) (Klebsiella pneumoniae [11]): 35 mm; diameter of the inhibition zone (DIZ) (Escherichia coli [12]): 31 mm
